Columns and labels:
[1] = target: T1, maize endosperm AGPase, large subunit variant D161G (numbering of SEQ ID NO: 20) (Zea mays, UniProt P55241+Q84PF5, D161G); assay: Kinetic constants in the absence of 3-PGA, D161G; assay type: biochemical
T1 sequence (P55241 46-516 D161G): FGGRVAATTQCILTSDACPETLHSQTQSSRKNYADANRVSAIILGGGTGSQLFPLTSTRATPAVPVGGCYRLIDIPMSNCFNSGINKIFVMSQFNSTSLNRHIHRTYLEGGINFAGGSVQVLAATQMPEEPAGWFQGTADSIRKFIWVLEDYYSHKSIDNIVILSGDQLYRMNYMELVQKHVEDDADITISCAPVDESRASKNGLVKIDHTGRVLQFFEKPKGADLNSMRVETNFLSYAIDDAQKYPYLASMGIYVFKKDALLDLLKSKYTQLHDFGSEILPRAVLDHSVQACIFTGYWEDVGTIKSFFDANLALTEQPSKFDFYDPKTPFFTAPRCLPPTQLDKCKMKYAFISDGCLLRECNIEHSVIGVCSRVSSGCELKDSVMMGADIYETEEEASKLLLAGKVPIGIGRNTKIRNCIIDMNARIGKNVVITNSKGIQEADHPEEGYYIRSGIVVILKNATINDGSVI
T1 sequence (Q84PF5 1-474): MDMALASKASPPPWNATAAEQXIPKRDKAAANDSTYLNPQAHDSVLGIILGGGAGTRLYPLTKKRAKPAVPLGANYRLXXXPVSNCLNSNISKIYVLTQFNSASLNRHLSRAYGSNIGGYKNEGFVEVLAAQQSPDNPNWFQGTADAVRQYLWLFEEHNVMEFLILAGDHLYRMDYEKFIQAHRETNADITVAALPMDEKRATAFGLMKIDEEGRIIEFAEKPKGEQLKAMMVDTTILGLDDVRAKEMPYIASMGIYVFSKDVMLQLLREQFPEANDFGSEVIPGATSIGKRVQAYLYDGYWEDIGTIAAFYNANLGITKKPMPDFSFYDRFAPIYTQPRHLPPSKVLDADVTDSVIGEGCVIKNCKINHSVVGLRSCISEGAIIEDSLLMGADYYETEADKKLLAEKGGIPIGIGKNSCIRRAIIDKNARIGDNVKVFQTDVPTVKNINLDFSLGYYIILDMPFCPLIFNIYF
Experimental: Reactions were performed for 10 min and terminated by boiling. Blank mixtures contained everything except ATP.
Based on the kinetic results (Table 10) and catalytic properties at 55° C. (Table 10) both D161G and GGR were selected for a more detailed kinetic analysis. […] The GGR mutant was primarily chosen based on its increased catalytic rate at 37° C. and high performance at 55° C. Its high activity in the absence of 3-PGA was also paramount. The first kinetic parameters determined were the Michaelis constants, the catalytic rate (kcat) and the dissociation constant (Kia) for the E-ATP complex, in the absence of 3-PGA. […] For the wt maize enzyme, this activator primarily responds by reducing the Km for both substrates, with little effect on the reaction rate (Boehlein et al., 2013). […] The kinetic mechanism established ATP as the first substrate to bind, thus the activator is no longer necessary for this first step. […] This variant also conditions both heat stability and high activity in the absence of an activator.

[2] = system: maize endosperm AGPase, wild type (Maize-wt); details: absence of 3-PGA, cited from earlier work
[3] = system: maize endosperm AGPase, wild type; details: Maize wt, presence of 3-PGA, ATP varied, Pi inhibition, P-MT; read-out: Km (ATP); cited from earlier work

With Nc1ncnc2c1ncn2[C@@H]1O[C@H](COP(=O)(O)OP(=O)(O)OP(=O)(O)O)[C@@H](O)[C@H]1O [ATP] the “decrease of Km for ATP compared to wild-type” value [1] was roughly 100 ×, the kcat ([1]; ATP varied at fixed G-1-P) was 48.8 s⁻¹ and the Km ([1]; read-out: ATP Km) was 43 µM. For the same molecule, the Km ([2]; apparent Km in the presence of 15 mM G-1-P, read-out: ATP Km (apparent)) was 4000 µM, the kcat [2] was 35.2 s⁻¹ and the Km [3] was 110 µM.
